Measurements from patent publication US11168319B1, “Plant cell culture” (Inari Agriculture Technology, Inc., priority 2017, dated 2021).
Like-named read-outs stand apart in the source and are kept apart here.

Assays:
maize B104 protoplasts = experiment: Cell division rate by EdU staining (% EdU); conditions: O2 5%, Ca^2+ 100 mM, glutathione 0 mM, 90 h
Experimental: Cell division rates are expressed as “% EdU” (percentage of cells displaying the EdU signal relative to the total cell count).
Cell division was monitored, e.g., by microscopic observations. […] Evidence of cell division was observed by microscopy and included increased cell or protoplast size, bulging membranes, and large groups of organelles occupying the separating daughter cells. Quantification of cell division was carried out using fluorescent staining. […] Cells that are the result of cellular division in the presence of EdU were identified by the resulting green fluorescent signal, which can be quantified by various means, e.g., with a microplate reader, cell counter, or cell sorter.
In a separate experiment, maize HiIIA protoplasts were grown in 24-well plates using YPIM B-liquid medium containing 100 millimolar Ca^2+ and 20 micromolar EdU. Identical plates were incubated under hypoxia (5% oxygen by volume, 26 degrees Celsius, 80% relative humidity) or ambient oxygen (21% oxygen by volume, 26 degrees Celsius, 80% relative humidity). Entire wells (250 microliters) were taken for EdU detection at four time points. The contents of each well was centrifuged and the pellet subjected to the Click-iT™ EdU Alexa Fluor™ 488 Imaging Kit (catalogue number C10337, Thermo Fisher Scientific, Waltham, Mass.) fluorescent labelling protocol. The labelled protoplasts were resuspended in YPIM B-medium and samples analyzed on a Nexcelom Cellometer (Nexcelom Bioscience LLC, Lawrence, Mass.). This assay was developed to detect the EdU signal from the nucleus of a cell resulting from cell division, as well as the fluorescent signal from chloroplasts as a measure of total cell count.
Entire wells (1000 microliters) were taken for EdU detection at three time points; analyses were of duplicate samples of each of two replicate wells.

Q: How did the plant protoplast viability (plant protoplasts; about 40 millimolar or about 50 millimolar) turn out when `[Ca+2].[Cl-].[Cl-]` [calcium chloride] was run?
A: Even higher levels of plant protoplast viability

Q: And the protoplast viability (plant protoplasts; between or about 50 to about 100 millimolar, several titration experiments)?
A: greatest improvement in protoplast viability

Q: What about the plant protoplast viability (plant protoplasts; culture medium contains about 30 millimolar) of the same compound?
A: Beneficial effects

Q: What about the “EdU staining mean %” value (maize B104 protoplasts) of the same compound?
A: 21.9%
